Where two headings read alike, the source gives them in different places.
Experiments:
[1] = tested on: Stagonospora nodorum (Leptosphaeria nodorum—LEPTNO); assay: In vitro fungal growth inhibition, Stagonospora nodorum (LEPTNO); format: cell-based; conditions: for inhibition at 25 ppm: Leptosphaeria, read-out: LEPTNO in vitro Growth Inhibition
Erysiphe graminis—ERYSGT = assay: Powdery Mildew of Wheat, in vivo whole plant, 24 Hour Protectant; conditions: control of fungal infection vs untreated plants; for pest or weed control at 100 ppm: Erysiphe, read-out: ERYSGT in vivo 1 Day Protectant
[2] = tested on: Phytophthora infestans—PHYTIN; assay: whole plant or invertebrate; format: in vivo; conditions: for pest or weed control at 100 ppm: Phytophthora, in Solanum lycopersicum, 24 h, read-out: PHYTIN in vivo 1 Day Protectant
[3] = tested on: Leptosphaeria nodorum—LEPTNO; assay: Glume Blotch of Wheat, in vivo whole plant, 24 Hour Protectant; conditions: control of fungal infection vs untreated plants; for pest or weed control at 100 ppm: Leptosphaeria, read-out: LEPTNO in vivo 1 Day Protectant
[4] = tested on: Phytophthora infestans (PHYTIN); assay: microbe, parasite or virus in culture; format: cell-based; conditions: for inhibition at 25 ppm: Phytophthora infestans, read-out: PHYTIN in vitro Growth Inhibition
Septoria tritici—SEPTTR = assay: Leaf Blotch of Wheat, in vivo whole plant, 24 Hour Protectant; conditions: control of fungal infection vs untreated plants; for pest or weed control at 100 ppm: Zymoseptoria tritici, 24 h, read-out: SEPTTR in vivo 1 Day Protectant
[5] = tested on: Rhizoctonia solani (RHIZSO); assay: microbe, parasite or virus in culture; format: cell-based; conditions: for inhibition at 25 ppm: Rhizoctonia solani, read-out: RHIZSO in vitro Growth Inhibition
[6] = tested on: Puccinia recondita—PUCCRT; assay: Brown Rust of Wheat, in vivo whole plant, 24 Hour Protectant; conditions: control of fungal infection vs untreated plants; for pest or weed control at 100 ppm: Puccinia, read-out: PUCCRT in vivo 1 Day Protectant
[7] = tested on: Magnaporthe grisea (Pyricularia oryzae—PYRIOR); assay: microbe, parasite or virus in culture; format: cell-based; conditions: for inhibition at 25 ppm: Pyricularia oryzae, read-out: PYRIOR in vitro Growth Inhibition
Ustilago maydis (USTIMA) = assay: microbe, parasite or virus in culture; format: cell-based; conditions: for inhibition at 25 ppm: Mycosarcoma maydis, read-out: USTIMA in vitro Growth Inhibition
[8] = tested on: Mycosphaerella graminicola (Septoria tritici—SEPTTR); assay: In vitro fungal growth inhibition, Mycosphaerella graminicola (SEPTTR); format: cell-based; conditions: for inhibition at 25 ppm: Zymoseptoria tritici, read-out: SEPTTR in vitro Growth Inhibition
[9] = 100 ppm spray, wheat, 24 hour protectant
[10] = 100 ppm spray, 24 hour protectant, wheat
[11] = wheat plants sprayed at 100 ppm, inoculated after 24 hours

| Compound | inhibition at 25 ppm ([1]; 25 ppm in growth medium) | pest or weed control at 100 ppm (Erysiphe graminis—ERYSGT; [9]) | pest or weed control at 100 ppm [2] | pest or weed control at 100 ppm [3, 9] | inhibition at 25 ppm [4] | pest or weed control at 100 ppm (Septoria tritici—SEPTTR; [9]) | inhibition at 25 ppm [5] | pest or weed control at 100 ppm [6, 9] | inhibition at 25 ppm [7] | inhibition at 25 ppm (Ustilago maydis (USTIMA)) | inhibition at 25 ppm ([8]; 25 ppm in growth medium) | pest or weed control at 100 ppm (Erysiphe graminis—ERYSGT; [10]) | pest or weed control at 100 ppm [3, 10] | pest or weed control at 100 ppm [6, 10] | further results |
| --- | --- | --- | --- | --- | --- | --- | --- | --- | --- | --- | --- | --- | --- | --- | --- |
| COc1ccnc(C(=O)N[C@H]2COC(=O)[C@H](Cc3ccccc3)[C@@H](OC(=O)C3C(C)CCCC3C)[C@H](C)OC2=O)c1O (stereo partly drawn) [Compound 393] | > 80% | < 25% | < 25% | 25 to 74% | < 80% | 25 to 74% | < 80% | 25 to 74% | > 80% | > 80% | > 80% |  |  |  |  |
| COc1ccccc1Oc1cccc(NC(=O)c2nccc(OC)c2O)c1 [Compound 430] | < 80% | < 25% | 25 to 74% | < 25% | < 80% | < 25% | < 80% | < 25% | < 80% | < 80% | < 80% |  |  |  |  |
| COc1ccnc(C(=O)NC(COC(=O)CCc2ccccc2)C(=O)OC(C)COC(=O)C(C)C)c1O (stereo not drawn) [Compound 359] |  |  |  |  |  |  |  |  |  |  |  |  |  |  | LEPTNO in vitro Growth Inhibition ([1]; 25 ppm in growth medium): − (less than 80% growth inhibition); ERYSGT in vivo 1 Day Protectant (Erysiphe graminis—ERYSGT; [9]): − (<25% control of fungal infection); PHYTIN in vivo 1 Day Protectant ([2]; 100 ppm spray, tomato, 24 hour protectant, control of fungal infection vs untreated plants): − (<25% control of fungal infection); LEPTNO in vivo 1 Day Protectant [3, 9]: + (25-74% control of fungal infection); PHYTIN in vitro Growth Inhibition ([4]; 25 ppm in growth medium): − (less than 80% growth inhibition); SEPTTR in vivo 1 Day Protectant (Septoria tritici—SEPTTR; [9]): + +; RHIZSO in vitro Growth Inhibition [5]: − (key: +: at least 80% growth inhibition; −: less than 80% growth inhibition); PUCCRT in vivo 1 Day Protectant [6, 9]: + +; PYRIOR in vitro Growth Inhibition ([7]; 25 ppm in growth medium): − (less than 80% growth inhibition); USTIMA in vitro Growth Inhibition (Ustilago maydis (USTIMA)): − (key: +: at least 80% growth inhibition; −: less than 80% growth inhibition); SEPTTR in vitro Growth Inhibition ([8]; 25 ppm in growth medium): − (less than 80% growth inhibition) |
| COC(=O)C(Cc1ccc(OCc2ccccc2)cc1)NC(=O)c1nccc(OC)c1O (single isomer, unassigned) [Compound 338] | < 80% | < 25% | < 25% |  | < 80% | 25 to 74% | < 80% |  | < 80% | > 80% | < 80% |  |  |  | LEPTNO in vivo 1 Day Protectant [3, 9]: + +; PUCCRT in vivo 1 Day Protectant [6, 9]: + + |
| O=C(NCCCCc1ccccc1)c1ncccc1O [Compound 234] | > 80% |  | < 25% |  | > 80% |  | < 80% |  | > 80% | < 80% | < 80% | < 25% | < 25% | < 25% | pest or weed control at 100 ppm (Septoria tritici—SEPTTR; [10]): 25 to 74% |
| COc1ccnc(C(=O)NC2CCCC2=O)c1O (stereo not drawn) [Compound 249] | < 80% |  | < 25% |  | < 80% |  | < 80% |  | < 80% | < 80% | < 80% | < 25% | 25 to 74% | < 25% | pest or weed control at 100 ppm (Septoria tritici—SEPTTR; [10]): 25 to 74% |
| CC(NC(=O)c1ccncc1O)c1ccc(C(F)(F)F)cc1 (stereo not drawn) [Compound 510] |  |  | 25 to 74% |  | < 80% |  | < 80% |  | < 80% | < 80% |  |  |  |  | inhibition at 25 ppm ([1]; 25 ppm in the growth medium): < 80%; pest or weed control at 100 ppm (Erysiphe graminis—ERYSGT; [11]): < 25%; pest or weed control at 100 ppm [3, 11]: < 25%; pest or weed control at 100 ppm (Septoria tritici—SEPTTR; [11]): < 25%; pest or weed control at 100 ppm [6, 11]: < 25%; inhibition at 25 ppm ([8]; 25 ppm in the growth medium): < 80% |
| COc1ccnc(C(=O)NC2CC(C)(C)C(Oc3cc(C(F)(F)F)cc(C(F)(F)F)n3)C(C)(C)C2)c1O (stereo not drawn) [Compound 272] | < 80% |  | < 25% |  | < 80% |  | < 80% |  | < 80% | < 80% | > 80% | < 25% | 25 to 74% | < 25% | SEPTTR in vivo 1 Day Protectant (Septoria tritici—SEPTTR; [10]): + + |
| COc1ccnc(C(=O)NCC#Cc2ccccc2)c1O [Compound 240] | < 80% |  | < 25% |  | < 80% |  | < 80% |  | < 80% | < 80% | < 80% | < 25% | 25 to 74% | < 25% | SEPTTR in vivo 1 Day Protectant (Septoria tritici—SEPTTR; [10]): + + |
| COc1ccnc(C(=O)N[C@@H]2C(=O)O[C@@H](C)C[C@@H](C)C(=O)O[C@@H]2C)c1O [Compound 381] | > 80% | < 25% | < 25% | < 25% | < 80% | < 25% | < 80% | 25 to 74% | < 80% | < 80% | > 80% |  |  |  |  |
| COc1ccnc(C(=O)N[C@@H]2C[C@@H](O[Si](C)(C)C(C)(C)C)O[C@@H](C)[C@@H]2OC)c1O [Compound 326] |  |  | < 25% |  | < 80% |  | < 80% |  | < 80% | < 80% |  | < 25% | 25 to 74% | < 25% | inhibition at 25 ppm [1]: < 80%; SEPTTR in vivo 1 Day Protectant (Septoria tritici—SEPTTR; [10]): + +; inhibition at 25 ppm [8]: < 80% |
| COc1ccnc(C(=O)N[C@H]2COC(=O)[C@H](Cc3ccccc3)[C@@H](OC(=O)/C=C(\C)CCC=C(C)C)[C@H](C)OC2=O)c1O [Compound 396] | > 80% | < 25% | < 25% | 25 to 74% | < 80% | 25 to 74% | < 80% | 25 to 74% | > 80% | < 80% | > 80% |  |  |  |  |
| COc1ccnc(C(=O)NC2COC3(CC(C)(C)CC(C)(C)C3)OC2)c1O [Compound 315] | < 80% |  | < 25% |  | < 80% |  | < 80% |  | < 80% | < 80% | < 80% | < 25% | 25 to 74% | < 25% | pest or weed control at 100 ppm (Septoria tritici—SEPTTR; [10]): < 25% |
| COc1ccnc(C(=O)Nc2ccccc2Oc2ccc(C)cc2)c1O [Compound 411] | > 80% | < 25% | < 25% | < 25% | < 80% | < 25% | < 80% | < 25% | < 80% | < 80% | > 80% |  |  |  |  |
| COc1ccnc(C(=O)NC2CC(C)(C)CC(C)(C(=O)OCCC(C)(C)C)C2)c1O (stereo not drawn) [Compound 261] | > 80% |  | 25 to 74% |  | > 80% |  | < 80% |  | < 80% | < 80% | > 80% | < 25% | 25 to 74% | 25 to 74% | pest or weed control at 100 ppm (Septoria tritici—SEPTTR; [10]): 25 to 74% |

Source: patent publication US6706740B2, “Fungicidal heterocyclic aromatic amides and their compositions, methods of use and preparation” (Dow AgroSciences LLC, priority 1999, dated 2004)
